What was measured:
Aβ1-40 = test: Measurement of Aβ1-40 in culture medium of 7W WT APP751 CHO cells by ELISA; assay type: cell-based, Chinese hamster; conditions: for Aβ1-40 (% of control): CHO cells that overexpress APP751, zero = below the detection limit of the assay; for activity at 5 µM: Cricetulus griseus, Table 1, 5 μM test compound, CHO cells stably transfected with human APP751, culture medium, ELISA, control DMSO, 0 = no detectable amount
Aβ1-42 = test: Measurement of Aβ1-42 in culture medium of 7W WT APP751 CHO cells by ELISA; assay type: cell-based, Chinese hamster; conditions: for Aβ1-42 (% of control): CHO cells that overexpress APP751, zero = below the detection limit of the assay; for activity at 5 µM: Cricetulus griseus, Table 1, 5 μM test compound, CHO cells stably transfected with human APP751, culture medium, ELISA, control DMSO, 0 = no detectable amount, read-out: Aβ1-42 (% of control)
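Further: 5 µM test compound but RI-coded compounds at 10 µM for 24 hours.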

Structure (SMILES)	Aβ1-40 (% of control) (Aβ1-40)	Aβ1-42 (% of control) (Aβ1-42)	activity at 5 µM (Aβ1-40) [%]	activity at 5 µM (Aβ1-42) [%]
CC1=C(C(=O)Nc2ccccc2)C(c2cccs2)C(C#N)=C(SCC(=O)NC2CCC(C)CC2)N1 (stereo not drawn) [RI_21]	18.7 % of control	22.1 % of control		
CC1=C(C(=O)OCc2ccccc2)C(c2cccs2)C2=C(CCCC2=O)N1 (stereo not drawn) [ST017233, phenylmethyl 2-methyl-5-oxo-4-(2-thienyl)-1,4,6,7,8-pentahydroquinoline-3-carboxylate]			60.9	27.4
COC(=O)C1=C(C)NC2=C(C(=O)CC(c3ccc(Cl)cc3)C2)C1c1ccc(Cl)c(Cl)c1 (stereo not drawn) [ST015215, methyl 4-(3,4-dichlorophenyl)-7-(4-chlorophenyl)-2-methyl-5-oxo-1,4,6,7,8-pentahydroquinoline-3-carboxylate]			23.1	39.8
N#CC1=C(N)n2c(s/c(=C/c3ccncc3)c2=O)=C(C#N)C1c1ccncc1 (stereo not drawn) [ST211853, 5-amino-3-oxo-7-(4-pyridyl)-2-(4-pyridylmethylene)-4,7-dihydro-1,3-thiazolidino[3,2-a]pyridine-6,8-dicarbonitrile]	49 % of control	18.37 % of control		
COCCOC(=O)C1=C(C)NC2=C(C(=O)CCC2)C1c1cc(Br)c(O)c(OC)c1 (stereo not drawn) [ST013357, 2-methoxyethyl 4-(3-bromo-4-hydroxy-5-methoxyphenyl)-2-methyl-5-oxo-1,4,6,7,8-pentahydroquinoline-3-carboxylate]			62.4	95.2
COc1ccccc1C1C(C(=O)OCCOc2ccccc2)=C(C)NC2=C1C(=O)CC(C)(C)C2 (stereo not drawn) [ST015108, 2-phenoxyethyl 4-(2-methoxyphenyl)-2,7,7-trimethyl-5-oxo-1,4,6,7,8-pentahydroquinoline-3-carboxylate]			33	92.1
CCOc1cc(C2C(C(=O)OCc3ccc(OC)cc3)=C(C)NC3=C2C(=O)CC(C)(C)C3)ccc1O (stereo not drawn) [ST016964, (4-methoxyphenyl)methyl 4-(3-ethoxy-4-hydroxyphenyl)-2,7,7-trimethyl-5-oxo-1,4,6,7,8-pentahydroquinoline-3-carboxylate]			36.4	40
CC1=C(C(=O)OCCc2ccccc2)C(c2ccc(C)cc2)C2=C(CCCC2=O)N1 (stereo not drawn) [ST015076, 2-phenylethyl 2-methyl-4-(4-methylphenyl)-5-oxo-1,4,6,7,8-pentahydroquinoline-3-carboxylate]			58.9	98.6
CCOc1ccccc1C1C(C(=O)OC2CCCCC2)=C(C)NC2=C1C(=O)CC(C)(C)C2 (stereo not drawn) [ST017304, cyclohexyl 4-(2-ethoxyphenyl)-2,7,7-trimethyl-5-oxo-1,4,6,7,8-pentahydroquinoline-3-carboxylate]			52	57.2
CC1=C(C(=O)Nc2ccc(Cl)cc2)C(c2cccs2)C(C#N)=C(SCC(=O)Nc2cccc(C)c2)N1 (stereo not drawn) [RI_10]	78.8 % of control	70.6 % of control		
CCOC(=O)C1=C(C)NC2=C(C(=O)CC(c3ccc(OC)cc3)C2)C1c1ccc(OCc2ccccc2)cc1 (stereo not drawn) [ST017078, ethyl 7-(4-methoxyphenyl)-2-methyl-5-oxo-4-[4-(phenylmethoxy)phenyl]-1,4,6,7,8-pentahydroquinoline-3-carboxylate]			51.8	49.4
CC1=C(C(=O)Nc2ccccc2)C(Cc2ccccc2)C(C#N)=C(SCC(=O)Nc2cccc(C)c2)N1 (stereo not drawn) [RI_34]	31.4 % of control	26.1 % of control		
COc1ccc(C2CC(=O)C3=C(C2)NC(C)=C(C(=O)OCc2ccccc2)C3c2cc(OC)c(OC)c(OC)c2)cc1 (stereo not drawn) [ST017244, phenylmethyl 7-(4-methoxyphenyl)-2-methyl-5-oxo-4-(3,4,5-trimethoxyphenyl)-1,4,6,7,8-pentahydroquinoline-3-carboxylate]			65.4	24.4
CCOc1ccccc1C1C(C(=O)OCC(C)C)=C(C)NC2=C1C(=O)CC(c1ccc(Cl)cc1)C2 (stereo not drawn) [ST017038, 2-methyipropyl 7-(4-chlorophenyl)-4-(2-ethoxyphenyl)-2-methyl-5-oxo-1,4,6,7,8-pentahydroquinoline-3-carboxylate]			42.7	81.9
N#CC1=C(N)n2c(s/c(=C\c3ccccc3Cl)c2=O)=C(C#N)C1c1ccccc1Cl (stereo not drawn) [ST006953]	47.74 % of control	83.98 % of control		
CC1=C(C(=O)OCCOc2ccccc2)C(c2cccc(O)c2)C2=C(CC(c3ccccc3)CC2=O)N1 (stereo not drawn) [ST017315, 2-phenoxyethyl 4-(3-hydroxyphenyl)-2-methyl-5-oxo-7-phenyl-1,4,6,7,8-pentahydroquinoline-3-carboxylate]			43.8	53.9
COC(=O)C1=C(C)NC2=C(C(=O)CCC2)C1c1ccc(OC)c(OC)c1OC (stereo not drawn) [ST013147, methyl 2-methyl-5-oxo-4-(2,3,4-trimethoxyphenyl)-1,4,6,7,8-pentahydroquinoline-3-carboxylate]			72	45.4

Structure (SMILES)	Aβ1-40 (% of control) (Aβ1-40)	Aβ1-42 (% of control) (Aβ1-42)	activity at 5 µM (Aβ1-40) [%]	activity at 5 µM (Aβ1-42) [%]
COc1ccc(NC(=O)CSC2=C(C#N)C(c3cccs3)C(C(=O)Nc3ccccc3)=C(C)N2)cc1 (stereo not drawn) [RI_58]	23.1 % of control	25.6 % of control		
COCCOC(=O)C1=C(C)NC2=C(C(=O)CCC2)C1c1ccccc1 (stereo not drawn) [ST013253, 2-methoxyethyl 2-methyl-5-oxo-4-phenyl-1,4,6,7,8-pentahydroquinoline-3-carboxylate]			50.2	85.8
COc1ccccc1NC(=O)CSC1=C(C#N)C(c2ccsc2)C(C(=O)Nc2ccccc2)=C(C)N1 (stereo not drawn) [RI_57]	49.1 % of control	37.3 % of control		
COC(=O)C1=C(C)NC2=C(C(=O)CC(C)(C)C2)C1c1ccc(OCc2cccc(C(F)(F)F)c2)c(OC)c1 (stereo not drawn) [ST028607, methyl 4-(3-methoxy-4-{[3-(trifluoromethyl)phenyl]methoxy}phenyl)-2,7,7-trimethyl-5-oxo-1,4,6,7,8-pentahydroquinoline-3-carboxylate]			23.8	63.3
COC(=O)C1=C(N)n2c(s/c(=C/c3ccc(Cl)cc3Cl)c2=O)=C(C(=O)OC)C1c1ccc(Cl)cc1Cl (stereo not drawn) [ST011769, methyl 5-amino-7-(2,4-dichlorophenyl)-2-[(2,4-dichlorophenyl)methylene]-6-(methoxycarbonyl)-3-oxo-4,7-dihydro-1,3-thiazolidino[3,2-a]pyridine-8-carboxylate]	42.3 % of control	71.56 % of control		
COc1cc(C2C(C(=O)OCCc3ccccc3)=C(C)NC3=C2C(=O)CC(C)(C)C3)ccc1O (stereo not drawn) [ST015094, 2-phenylethyl 4-(4-hydroxy-3-methoxyphenyl)-2,7,7-trimethyl-5-oxo-1,4,6,7,8-pentahydroquinoline-3-carboxylate]			56.3	59.8
CC1=C(C(=O)Nc2ccccc2)C(c2cccs2)C(C#N)=C(SCC(=O)Nc2ccccc2)N1 (stereo not drawn) [RI_66]	20.6 % of control	23.6 % of control		
CC1=C(C(=O)OC2CCCC2)C(c2ccc(C)o2)C2=C(CC(c3cccs3)CC2=O)N1 (stereo not drawn) [ST051567, cyclopentyl 2-methyl-4-(5-methyl(2-furyl))-5-oxo-7-(2-thienyl)-1,4,6,7,8-pentahydroquinoline-3-carboxylate]			60.4	85
CCCOc1ccccc1C1C(C(=O)OCCOc2ccccc2)=C(C)NC2=C1C(=O)CC(C)(C)C2 (stereo not drawn) [ST015105, 2-phenoxyethyl 2,7,7-trimethyl-5-oxo-4-(2-propoxyphenyl)-1,4,6,7,8-pentahydroquinoline-3-carboxylate]			53	99.8
CC1=C(C(=O)Nc2ccccc2)C(c2cccs2)C(C#N)=C(S)N1 (stereo not drawn) [RI_28]	77.1 % of control	68.5 % of control		
CC1=C(C(=O)OCCOc2ccccc2)C(c2ccc(Cl)cc2Cl)C2=C(CC(C)(C)CC2=O)N1 (stereo not drawn) [ST015067, 2-phenoxyethyl 4-(2,4-dichlorophenyl)-2,7,7-trimethyl-5-oxo-1,4,6,7,8-pentahydroquinoline-3-carboxylate]			4.89	43.9
CCOC(=O)C1=C(C)NC2=C(C(=O)CC(C)(C)C2)C1c1ccc(Cl)cc1Cl (stereo not drawn) [ST020008, ethyl 4-(2,4-dichlorophenyl)-2,7,7-trimethyl-5-oxo-1,4,6,7,8-pentahydroquinoline-3-carboxylate]			61.7	95.7
CC1=C(C(=O)Nc2ccccc2)C(c2cccs2)C(C#N)=C(SCC(=O)Nc2ccc(Cl)cc2)N1 (stereo not drawn) [RI_74]	31.4 % of control	41.6 % of control		
COc1ccc(C2C(C(=O)OC3CCCCC3)=C(C)NC3=C2C(=O)CC(C)(C)C3)cc1O (stereo not drawn) [ST052325, cyclohexyl 4-(3-hydroxy-4-methoxyphenyl)-2,7,7-trimethyl-5-oxo-1,4,6,7,8-pentahydroquinoline-3-carboxylate]			41.7	33
COc1ccc(COC(=O)C2=C(C)NC3=C(C(=O)CC(C)(C)C3)C2c2cc3c(cc2[NH+]([O-])O)OCO3)cc1 (stereo not drawn) [ST017054, (4-methoxyphenyl)methyl 2,7,7-trimethyl-4-(6-nitro(2H-benzo[d]1,3-dioxolan-5-yl))-5-oxo-1,4,6,7,8-pentahydroquinoline-3-carboxylate]			46.5	9.54
COc1ccc(COC(=O)C2=C(C)NC3=C(C(=O)CC(C)(C)C3)C2c2ccc(O)c(OC)c2)cc1 (stereo not drawn) [ST017025, (4-methoxyphenyl)methyl 4-(4-hydroxy-3-methoxyphenyl)-2,7,7-trimethyl-5-oxo-1,4,6,7,8-pentahydroquinoline-3-carboxylate]			30.1	32.2

Source: patent US20100119599A1 (ARCHER PHARMACEUTICALS, INC., priority 2006, published 2010)
